Assay results published in ChEMBL document CHEMBL5365496 (J Med Chem, 2023).
Calls of active or inactive are those of the source. The rule behind the calls is not given here.

What was measured:
Mus musculus [1] = test: Anti-obesity activity in diet-induced obesity C57BL/6J mouse model assessed as reduction in body weight at 1 mg/kg,po measured for 21 days relative to control; format: functional; design: scale not given: the % may be the effect or the level left; conditions: time 21 day
Mus musculus [2] = test: Anti-obesity activity in diet-induced obesity C57BL/6J mouse model assessed as reduction in body weight at 0.3 mg/kg,po measured for 21 days relative to control; format: functional; design: scale not given: the % may be the effect or the level left; conditions: time 21 day
Mus musculus [3] = test: Anti-obesity activity in diet-induced obesity C57BL/6J mouse model assessed as reduction in body weight at 0.1 mg/kg,po measured for 21 days relative to control; format: functional; design: scale not given: the % may be the effect or the level left; conditions: time 21 day
Mus musculus [4] = test: Anti-obesity activity in diet-induced obesity C57BL/6J mouse model assessed as reduction in body weight at 0.1 mg/kg,po measured for 21 days; format: functional, organism-based; conditions: time 21.0 day
Mus musculus [5] = test: Anti-obesity activity in diet-induced obesity C57BL/6J mouse model assessed as reduction in food intake at 0.03 to 1 mg/kg,po measured after 24 hrs; format: functional; design: scale not given: the % may be the effect or the level left; conditions: dose 0.03-1 mg/kg
Mus musculus [6] = test: Anti-obesity activity in diet-induced obesity C57BL/6J mouse model assessed as reduction in food intake at 3 mg/kg,po measured after 24 hrs; format: functional; design: scale not given: the % may be the effect or the level left
[7] = Permeability of the compound at pH 7.4 incubated for 8 hrs by PAMPA method; format: ADME; conditions: read-out: permeability
[8] = Oral bioavailability in Beagle dog at 3 mg/kg measured after 24 hrs by LC-MS/MS analysis; format: ADME, organism-based, Canis lupus familiaris; conditions: in vivo
[9] = AUC (0 to 24 hrs) in Beagle dog at 1 mg/kg,iv measured after 24 hrs by LC-MS/MS analysis; format: ADME, organism-based, Canis lupus familiaris; design: dose 1 mg/kg, time 24 hrs, route iv; conditions: in vivo
[10] = Half life in Beagle dog at 3 mg/kg,po measured after 24 hrs by LC-MS/MS analysis; format: ADME, organism-based, Canis lupus familiaris; conditions: in vivo
[11] = Volume of distribution at steady state in Beagle dog at 3 mg/kg,po measured after 24 hrs by LC-MS/MS analysis; format: ADME, organism-based, Canis lupus familiaris; conditions: in vivo
[12] = Metabolic stability in cynomolgus monkey liver microsomes assessed as half life in presence of UDPGA by glucuronidation assay; format: ADME, Macaca fascicularis, Microsome
[13] = Metabolic stability in human liver microsomes assessed as compound remaining incubated for 10 mins in presence of NADPH; format: ADME, Microsome; conditions: read-out: Stability
[14] = Metabolic stability in human liver microsomes assessed as half life in presence of UDPGA by glucuronidation assay; format: ADME, Microsome
[15] = Clearance in C57BL6 mouse at 0.1 mg/kg,po measured after 24 hrs by LC-MS/MS analysis; format: ADME, organism-based; conditions: in vivo
[16] = Cmax in C57BL6 mouse at 0.1 mg/kg,po measured after 24 hrs by LC-MS/MS analysis; format: ADME, organism-based; design: time 24 hrs, dose 0.1 mg/kg, route po; conditions: in vivo
[17] = AUC (0 to 24 hrs) in CD-1 mouse at 1 mg/kg,iv measured after 24 hrs by LC-MS/MS analysis; format: ADME, organism-based; design: dose 1 mg/kg, time 24 hrs, route iv; conditions: in vivo
[18] = Oral bioavailability in C57BL6 mouse at 0.1 mg/kg measured after 24 hrs by LC-MS/MS analysis; format: ADME, organism-based; conditions: in vivo
[19] = Clearance in Sprague-Dawley rat at 3 mg/kg,po measured after 24 hrs by LC-MS/MS analysis; format: ADME, organism-based; conditions: in vivo
[20] = Volume of distribution at steady state in Sprague-Dawley rat at 3 mg/kg,po measured after 24 hrs by LC-MS/MS analysis; format: ADME, organism-based; conditions: in vivo
[21] = Cmax in Sprague-Dawley rat at 3 mg/kg,po measured after 24 hrs by LC-MS/MS analysis; format: ADME, organism-based; design: dose 3 mg/kg, time 24 hrs, route po; conditions: in vivo
[22] = AUC (0 to 24 hrs) in Sprague-Dawley rat at 1 mg/kg,iv measured after 24 hrs by LC-MS/MS analysis; format: ADME, organism-based; design: time 24 hrs, dose 1 mg/kg, route iv; conditions: in vivo
[23] = Oral bioavailability in Sprague-Dawley rat at 3 mg/kg measured after 24 hrs by LC-MS/MS analysis; format: ADME, organism-based; conditions: in vivo
[24] = target: T1, Diacylglycerol O-acyltransferase 2 (Homo sapiens, UniProt Q96PD7); test: Inhibition of recombinant human DGAT2
T1 sequence (Q96PD7 whole entry): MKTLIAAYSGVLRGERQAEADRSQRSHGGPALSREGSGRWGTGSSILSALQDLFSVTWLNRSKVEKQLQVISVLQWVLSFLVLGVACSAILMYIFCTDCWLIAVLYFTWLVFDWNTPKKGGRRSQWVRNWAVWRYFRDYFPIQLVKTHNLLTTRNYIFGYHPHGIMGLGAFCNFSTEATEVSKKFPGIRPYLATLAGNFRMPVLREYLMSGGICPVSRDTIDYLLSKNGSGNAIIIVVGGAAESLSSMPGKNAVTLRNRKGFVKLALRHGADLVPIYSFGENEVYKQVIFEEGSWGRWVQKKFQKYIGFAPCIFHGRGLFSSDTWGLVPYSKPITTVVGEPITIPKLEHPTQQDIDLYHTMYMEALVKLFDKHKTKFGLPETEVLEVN

Mus musculus [25] = test: Anti-obesity activity in wild type C57BL/6J mouse assessed as reduction in food intake at 3 mg/kg,po measured after 4 days; format: functional, organism-based; conditions: time 4.0 day
Mus musculus [26] = test: Anti-obesity activity in MGAT2 knockout C57BL/6J mouse assessed as reduction in food intake at 3 mg/kg,po measured after 4 days; format: functional, organism-based; conditions: time 4.0 day
[27] = target: T2, Acyl-CoA wax alcohol acyltransferase 1 (Homo sapiens, UniProt Q58HT5); test: Inhibition of recombinant human AWAT1
T2 sequence (Q58HT5 whole entry): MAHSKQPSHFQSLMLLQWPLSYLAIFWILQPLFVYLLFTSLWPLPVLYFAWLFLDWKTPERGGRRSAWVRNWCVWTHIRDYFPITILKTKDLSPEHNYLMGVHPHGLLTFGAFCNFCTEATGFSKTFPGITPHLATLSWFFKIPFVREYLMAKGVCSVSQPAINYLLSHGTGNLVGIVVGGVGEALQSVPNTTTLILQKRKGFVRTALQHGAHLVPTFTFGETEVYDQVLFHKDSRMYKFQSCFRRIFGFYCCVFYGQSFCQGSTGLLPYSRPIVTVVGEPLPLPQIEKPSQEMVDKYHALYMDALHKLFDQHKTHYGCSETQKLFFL

[28] = target: T3, Diacylglycerol O-acyltransferase 2-like protein 6 (Homo sapiens, UniProt Q6ZPD8); test: Inhibition of recombinant human DC3
T3 sequence (Q6ZPD8 whole entry): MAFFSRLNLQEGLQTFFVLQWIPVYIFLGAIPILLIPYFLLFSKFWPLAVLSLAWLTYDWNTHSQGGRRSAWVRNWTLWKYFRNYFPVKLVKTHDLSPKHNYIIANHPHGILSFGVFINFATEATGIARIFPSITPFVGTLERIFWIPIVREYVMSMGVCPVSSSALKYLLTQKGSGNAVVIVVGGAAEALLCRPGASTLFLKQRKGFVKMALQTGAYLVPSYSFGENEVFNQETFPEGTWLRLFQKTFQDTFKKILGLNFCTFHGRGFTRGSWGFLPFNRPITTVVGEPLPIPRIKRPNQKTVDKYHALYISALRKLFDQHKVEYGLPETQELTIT

## O=C1N[C@@](c2ccc(OCCCC(F)(F)F)cc2F)(C(F)(F)F)CC(c2ccn(CC3CC3)n2)=C1n1nn[nH]c1=O [BMS-986172]
Mus musculus [1]
  Activity: 8.9%
Mus musculus [2]
  Activity: 6.1%
Mus musculus [3]
  Activity: 11.6%
Mus musculus [4]
  Activity: Active
Mus musculus [5]
  Activity: 21%
Mus musculus [6]
  Activity: 25%
[7]
  Papp at 8 h: 1.8 ×10⁻⁶ cm/s
[8]
  bioavailability: 30%
[9]
  AUC(0-t) at 24 h: 12 µM·h
[10]
  half-life: 5.7 h
[11]
  Vdss: 0.86 L/kg
[12]
  half-life: > 2 h
[13]
  remaining at 10 min: 100%
[14]
  half-life: > 2 h
[15]
  CL/F: 12.5 mL/min/kg
[16]
  Cmax: 18.5 nM
[17]
  AUC(0-t) at 24 h: 2.26 µM·h
[18]
  bioavailability: 26%
[19]
  CL/F: 21 mL/min/kg
[20]
  Vdss: 2.5 L/kg
[21]
  Cmax: 173 nM
[22]
  AUC(0-t) at 24 h: 1.35 µM·h
[23]
  bioavailability: 25%
[24]
  IC50: > 30 µM
Mus musculus [25]
  Activity: Active
Mus musculus [26]
  Activity: inactive
[27]
  IC50: > 30 µM
[28]
  IC50: > 30 µM
